# Biological target: T1, endopeptidase 24.11 (Rattus norvegicus, UniProt P07861)
# T1 construct: was prepared by extracting from a rat kidney; from tissue; host or cells: Wistar rat kidney, homogenate pellet after ultracentrifugation (crude membrane preparation)
# T1 sequence (P07861 1-750): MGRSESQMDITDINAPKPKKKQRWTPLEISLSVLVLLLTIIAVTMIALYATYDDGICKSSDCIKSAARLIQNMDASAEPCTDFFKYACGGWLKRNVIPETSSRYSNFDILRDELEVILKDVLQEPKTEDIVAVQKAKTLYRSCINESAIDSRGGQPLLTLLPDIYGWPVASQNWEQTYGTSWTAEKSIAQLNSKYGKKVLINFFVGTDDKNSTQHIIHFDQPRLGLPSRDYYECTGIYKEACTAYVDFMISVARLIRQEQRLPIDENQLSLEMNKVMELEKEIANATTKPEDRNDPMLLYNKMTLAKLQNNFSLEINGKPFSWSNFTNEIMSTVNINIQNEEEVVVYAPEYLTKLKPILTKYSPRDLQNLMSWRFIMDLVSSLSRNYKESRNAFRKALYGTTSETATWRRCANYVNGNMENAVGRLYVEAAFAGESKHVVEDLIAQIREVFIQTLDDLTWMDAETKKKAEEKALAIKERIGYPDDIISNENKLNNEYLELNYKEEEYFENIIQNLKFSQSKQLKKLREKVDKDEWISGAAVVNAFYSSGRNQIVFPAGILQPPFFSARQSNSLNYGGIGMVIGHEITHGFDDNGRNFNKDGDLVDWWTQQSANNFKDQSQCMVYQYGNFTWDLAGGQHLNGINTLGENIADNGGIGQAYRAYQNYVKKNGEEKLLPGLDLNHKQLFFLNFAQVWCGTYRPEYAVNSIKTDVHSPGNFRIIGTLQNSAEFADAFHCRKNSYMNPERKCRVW
# Assay: inhibition of endopeptidase 24.11 activity (cleavage of N-dansyl-D-alanyl-glycyl-p-nitrophenylalanyl-glycine, DAGNPG; rat kidney enzyme preparation)
# Assay type: biochemical, Wistar rat
# Conditions: DAGNPG 50 μM, pH 7.4, 37° C., 30 minutes, read-out: IC50 (concentration required to inhibit endopeptidase 24.11 by 50%)
# Source text: As a method for measuring an endopeptidase 24.11 activity, Florentin et al. had reported a method for measuring the enzyme activity by a degree of cleavage of a peptide bond between glycine and p-nitrophenylalanine using N-dansyl-D-alanyl-glycyl-p-nitrophenylalanyl-glycine (DAGNPG) as a substrate (Anal. Biochem., 141, 62-69 (1984)). An effect of the compounds of the invention on endopeptidase 24.11 was examined according to the method described in the literature.
# An enzyme preparation used in this pharmacological test was prepared by extracting from a rat kidney by the following method according to the method of Malfloy et al. (J. Biol. Chem., 259, 14365-14370 (1984)).
# A kidney was excised from a Wistar rat. The kidney was homogenized in Tris-hydrochloric acid buffer (5 mM, pH 7.4, containing 125 mM D-mannitol and 12 mM magnesium chloride). The homogenate was centrifuged at low speed (1,000×g) to give a supernatant. The supernatant was ultracentrifuged ([…]) for 120 minutes. The resulting pellet was suspended in Tris-hydrochloric acid buffer (2.5 mM, pH 7.4, containing 62.5 mM D-mannitol and 6 mM magnesium chloride). The suspension was centrifuged at low speed and then ultracentrifuged again. The resulting pellet was suspended in HEPES buffer (5 mM, pH 7.4) to give the enzyme preparation.
# In order to examine the effect of the compounds of the invention on the enzyme preparation, reactions were performed under the following condition using mixed solutions consisting of the composition shown in Table 1. […]
# ______________________________________
# Enzyme preparation 0.3-0.5 μg protein
# The above-mentioned solution (150 μl) was incubated at 37° C. for 30 minutes and then boiled at 100° C. for 5 minutes. To the solution was added 1.35 ml of Tris-hydrochloric acid buffer (50 mM, pH 7.4). The mixture was centrifuged at moderate speed (5,000×g) for 5 minutes to give a supernatant. Fluorescence intensity of the supernatant (excitation at 342 nm of wave length and emission at 562 nm) was measured.
# The degree of the inhibitory effect of each test compound on the enzyme preparation was expressed by the inhibition rate calculated by the following equation. [formula]
# A: fluorescence intensity of the sample in the absence of the test compound
# B: fluorescence intensity of the sample in the presence of the test compound
row,Structure (SMILES),IC50
1,"CC(C)CN(CC(O)C(=O)O)C(=O)N[C@@H](Cc1ccccc1)C(=O)O (mixture of isomers) [Compound No. 2-1, (2S)-2-[3-[(2RS)-2-Carboxy-2-hydroxyethyl]-3-isobutylureido]-3-phenylpropionic acid]",5.4 nM
2,"CC(C)CN(C[C@H](O)C(=O)NO)C(=O)N[C@@H](Cc1ccccc1)C(=O)O [Compound No. 8-1, (2S)-2-[3-[(2S)-2-Hydroxy-2-hydroxycarbamoylethyl]-3-isobutylureido]-3-phenylpropionic acid]",0.32 nM
3,"CC(C)CN(C[C@@H](O)C(=O)O)C(=O)N[C@@H](Cc1ccc(-c2ccccc2)cc1)C(=O)O [Compound No. 8-3, (2S)-3-(4-Biphenylyl)-2-[3-[(2R)-2-carboxy-2-hydroxyethyl]-3-isobutylureido]propionic acid]",2.1 nM
4,"CC(C)CN(C[C@H](O)C(=O)NO)C(=O)N[C@@H](Cc1ccc(-c2ccccc2)cc1)C(=O)O [Compound No. 8-9, (2S)-3-(4-Biphenylyl)-2-[3-[(2S)-2-hydroxy-2-hydroxycarbamoylethyl]-3-isobutylureido]propionic acid]",0.16 nM
5,"CC(C)CN(C[C@H](O)C(=O)O)C(=O)N[C@@H](Cc1ccc(-c2ccccc2)cc1)C(=O)O [Compound No. 8-2, (2S)-3-(4-Biphenylyl)-2-[3-[(2S)-2-carboxy-2-hydroxyethyl]-3-isobutylureido]propionic acid]",0.95 nM
6,"CC(C)CN(CC(O)C(=O)O)C(=O)N[C@@H](Cc1ccc(-c2ccc(F)cc2)cc1)C(=O)O (mixture of isomers) [Compound No. 3-2, (2S)-2-[3-[(2RS)-2-Carboxy-2-hydroxyethyl]-3-isobutylureido]-3-[4-(4-fluorophenyl)phenyl]propionic acid]",3.1 nM
7,"CC(C)CN(C[C@H](O)C(=O)NO)C(=O)N[C@@H](Cc1ccc2ccccc2c1)C(=O)O [Compound No. 9-1, (2S)-2-[3-[(2S)-2-Hydroxy-2-hydroxycarbamoylethyl]-3-isobutylureido]-3-(2-naphthyl)propionic acid]",0.27 nM
8,"CC(C)CN(CC(O)C(=O)O)C(=O)N[C@H](C(=O)O)c1ccccc1 (mixture of isomers) [Compound No. 3-4, (2RS)-3-[3-[(S)-α-Carboxybenzyl]-1-isobutylureido]-2-hydroxypropionicacid]",65 nM
9,"CC(C)CN(CC(O)C(=O)O)C(=O)N[C@@H](Cc1ccc(-c2ccccc2)cc1)C(=O)O (mixture of isomers) [Compound No. 3-1, (2S)-3-(4-Biphenylyl)-2-[3-[(2RS)-2-carboxy-2-hydroxyethyl]-3-isobutylureido]propionic acid]",1.1 nM

# From patent US5891912A, “1,3-dialkylurea derivatives having a hydroxyl group” (Santen Pharmaceutical Co., Ltd., priority 1994, dated 1999)
